Structures can show the parent of a compound that is named as a salt.
Legend:
Cbl-b = Cbl-b (Homo sapiens (Human), UniProt Q13191); assay: Cbl-b LCK Ub TR-FRET assay (Cbl-b Lck HTRF); format: biochemical
Description: Compounds were 3-fold serially diluted in DMSO in a 384-well polypropylene plate (#P-05525-BC; Labcyte) to generate a source plate with 10 concentrations of each compound, top concentration=2 mM. 80 nL of DMSO or compounds were transferred to each well of a black 384-well ProxiPlate (#6008260; PerkinElmer) using a Labcyte Echo. 1×assay buffer (50 mM HEPES pH7.0, 100 mM NaCl, 0.01% BSA, 0.01% Triton-X100, 1 mM DTT), 2×enzyme solution (16 nM Biotin-Cbl-b or 12 nM Biotin-c-Cbl in 1× assay buffer), 2×kinase mixture (120 nM His-LCK, 1 mM ATP, 10 mM MgCl2 in assay buffer) and 2.33×detection mixture (4.66×solution 1: 163 nM Anti-HA-D2 antibody (#610HADAB; PerkinElmer), 27.96 nM Streptavidin-EU (#AD0062; PerkinElmer), 1.398 mM EDTA in 1×assay buffer+4.66×solution 2: 2.796 μM UBE2D2/Methylated-HA-Ubiquitin thioester adduct (BostonBiochem) in 1×assay buffer) were prepared. 4 μL of 2× enzyme solution was added to each well containing compound, briefly centrifuged to mix, and incubated for 60 min at room temperature. 4 μL of 2× kinase mixture was added, briefly centrifuged to mix, and incubated for 90 min. at room temperature. 6 μL of detection mixture was added to all wells and briefly centrifuged before incubating for 20 min at room temperature. Plates were read for TR-FRET using an Envision at excitation 340 nm, emission at 615 and 665 nm, 4 flashes per well. IC50 was generated using no LCK as the low control and DMSO as the high control.
Cbl-b Lck HTRF data in Table 7 is measured according to Example 76 herein; C-cbl Lck HTRF data is measured according to Example 76 herein.

c-Cbl = c-Cbl (Homo sapiens (Human), UniProt P22681); assay: C-Cbl LCK Ub TR-FRET assay (c-cbl Lck HTRF); format: biochemical; conditions: for (fold-selectivity): C-cbl Lck HTRF IC50 relative to Cbl-b Lck HTRF IC50
c-Cbl, sequence (P22681 47-435): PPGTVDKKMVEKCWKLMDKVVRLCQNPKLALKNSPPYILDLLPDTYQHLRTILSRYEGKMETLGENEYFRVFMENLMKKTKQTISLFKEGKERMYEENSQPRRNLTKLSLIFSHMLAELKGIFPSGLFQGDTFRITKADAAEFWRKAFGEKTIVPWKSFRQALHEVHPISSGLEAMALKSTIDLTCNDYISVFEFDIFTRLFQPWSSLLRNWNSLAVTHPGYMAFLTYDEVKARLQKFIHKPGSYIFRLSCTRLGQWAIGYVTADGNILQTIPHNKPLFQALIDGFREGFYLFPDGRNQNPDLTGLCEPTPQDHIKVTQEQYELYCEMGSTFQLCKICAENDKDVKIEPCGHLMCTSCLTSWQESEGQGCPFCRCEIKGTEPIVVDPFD
Description: 6 μL of detection mixture was added to all wells and briefly centrifuged before incubating for 20 min at room temperature. […] IC50 was generated using no LCK as the low control and DMSO as the high control.

Cbl-b, sequence (Q13191 40-426): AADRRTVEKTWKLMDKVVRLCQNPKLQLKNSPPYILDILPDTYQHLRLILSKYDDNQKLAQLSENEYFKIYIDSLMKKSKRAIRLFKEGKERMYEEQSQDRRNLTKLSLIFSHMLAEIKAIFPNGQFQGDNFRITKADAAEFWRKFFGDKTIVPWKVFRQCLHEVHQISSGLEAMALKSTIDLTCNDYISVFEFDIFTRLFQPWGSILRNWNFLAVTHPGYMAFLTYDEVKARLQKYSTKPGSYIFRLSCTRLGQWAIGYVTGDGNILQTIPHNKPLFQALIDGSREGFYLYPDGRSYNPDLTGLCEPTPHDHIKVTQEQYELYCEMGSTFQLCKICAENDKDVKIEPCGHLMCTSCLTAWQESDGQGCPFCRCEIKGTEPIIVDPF

Row | IC50 (Cbl-b) | IC50 (c-Cbl) | (fold-selectivity) (c-Cbl) | Structure (SMILES)
1 | 160 nM | 350 nM | 2.1x | Cn1cnnc1[C@H](F)C1(c2cccc(N3Cc4c(cc(CN5CC6(COC6)C5)cc4C(F)(F)F)C3=O)c2)COC1 [Compound 9, (R)-6-(2-oxa-6-azaspiro[3.3]heptan-6-ylmethyl)-2-(3-(3-(fluoro(4-methyl-4H-1,2,4-triazol-3-yl)methyl)oxetan-3-yl)phenyl)-4-(trifluoromethyl)isoindolin-1-one]
2 | 500 nM | 1100 nM | 2.3x | Cn1cnnc1[C@@H](F)C1(c2cccc(N3Cc4c(cc(CN5CC6(COC6)C5)cc4C(F)(F)F)C3=O)c2)COC1 [Compound 10, (S)-6-(2-oxa-6-azaspiro[3.3]heptan-6-ylmethyl)-2-(3-(3-(fluoro(4-methyl-4H-1,2,4-triazol-3-yl)methyl)oxetan-3-yl)phenyl)-4-(trifluoromethyl)isoindolin-1-one]
3 | 220 nM | 210 nM | 0.94x | Cn1cnnc1CC1(c2cccc(N3Cc4c(cc(C5CNC5)cc4C(F)(F)F)C3=O)c2)COC1 [Compound 12, 6-(azetidin-3-yl)-2-(3-(3-((4-methyl-4H-1,2,4-triazol-3-yl)methyl)oxetan-3-yl)phenyl)-4-(trifluoromethyl)isoindolin-1-one]
4 | 3500 nM | 6400 nM | 1.8x | Cn1cnnc1CC(F)(F)c1cccc(N2Cc3c(cccc3C(F)(F)F)C2=O)c1 [Compound 15, 2-(3-(1,1-difluoro-2-(4-methyl-4H-1,2,4-triazol-3-yl)ethyl)phenyl)-4-(trifluoromethyl)isoindolin-1-one]
5 | 17 nM | 14 nM | 0.85x | Cn1cnnc1CC1(c2cccc(N3Cc4c(cc(CN5CC(C)(O)C5)cc4C(F)(F)F)C3=O)c2)CC(F)(F)C1 [Compound 17, 2-(3-(3,3-difluoro-1-((4-methyl-4H-1,2,4-triazol-3-yl)methyl)cyclo-butyl)phenyl)-6-((3-hydroxy-3-methylazetidin-1-yl)methyl)-4-(trifluoromethyl)isoindolin-1-one]
6 | 39 nM | 61 nM | – | Cn1cnnc1[C@H](F)C1(c2cccc(N3Cc4c(cc(CN5CCC6(CC6)C5)cc4C(F)(F)F)C3=O)c2)CC1 [Compound 27, (R)-6-(5-azaspiro[2.4]heptan-5-ylmethyl)-2-(3-(1-(fluoro(4-methyl-4H-1,2,4-triazol-3-yl)methyl)cyclopropyl)phenyl)-4-(trifluoromethyl)isoindolin-1-one]
7 | 80 nM | 180 nM | 2.2x | Cn1cnnc1[C@@H](F)C1(c2cccc(N3Cc4c(cc(CN5CCC6(CC6)C5)cc4C(F)(F)F)C3=O)c2)CC1 [Compound 28, (S)-6-(5-azaspiro[2.4]heptan-5-ylmethyl)-2-(3-(1-(fluoro(4-methyl-4H-1,2,4-triazol-3-yl)methyl)cyclopropyl)phenyl)-4-(trifluoromethyl)isoindolin-1-one]
8 | 88 nM | 130 nM | 1.4x | Cn1cnnc1[C@H](F)[C@](C)(F)c1cccc(N2Cc3c(cc(CN4CC(C)(F)C4)cc3C(F)(F)F)C2=O)c1 [Compound 31, 2-(3-((1 S,2R)-1,2-difluoro-1-(4-methyl-4H-1,2,4-triazol-3-yl)propan-2-yl)phenyl)-6-((3-fluoro-3-methylazetidin-1-yl)methyl)-4-(trifluoromethyl)isoindolin-1-one]
9 | 4500 nM | 11000 nM | 2.5x | Cn1cnnc1[C@@H](F)[C@@](C)(F)c1cccc(N2Cc3c(cc(CN4CC(C)(F)C4)cc3C(F)(F)F)C2=O)c1 [Compound 32, 2-(3-((1 R,2S)-1,2-difluoro-1-(4-methyl-4H-1,2,4-triazol-3-yl)propan-2-yl)phenyl)-6-((3-fluoro-3-methylazetidin-1-yl)methyl)-4-(trifluoromethyl)isoindolin-1-one]
10 | 890 nM | 1900 nM | 2.1x | Cn1cnnc1[C@H](F)[C@@](C)(F)c1cccc(N2Cc3c(cc(CN4CC(C)(F)C4)cc3C(F)(F)F)C2=O)c1 [Compound 33, 2-(3-((1 S,2S)-1,2-difluoro-1-(4-methyl-4H-1,2,4-triazol-3-yl)propan-2-yl)phenyl)-6-((3-fluoro-3-methylazetidin-1-yl)methyl)-4-(trifluoromethyl)isoindolin-1-one]
11 | 380 nM | 760 nM | 2.0x | Cn1cnnc1[C@@H](F)[C@](C)(F)c1cccc(N2Cc3c(cc(CN4CC(C)(F)C4)cc3C(F)(F)F)C2=O)c1 [Compound 34]
12 | 100 nM | 180 nM | 1.8x | CO[C@@H]1CCN(Cc2cc3c(c(C(F)(F)F)c2)CN(c2cccc(C4([C@@H](F)c5nncn5C)COC4)c2)C3=O)C1 [Compound 47, 2-(3-(3-((R)-fluoro(4-methyl-4H-1,2,4-triazol-3-yl)methyl)oxetan-3-yl)phenyl)-6-(((R)-3-methoxypyrrolidin-1-yl)methyl)-4-(trifluoromethyl)isoindolin-1-one]
13 | 320 nM | 780 nM | 2.4x | CO[C@@H]1CCN(Cc2cc3c(c(C(F)(F)F)c2)CN(c2cccc(C4([C@H](F)c5nncn5C)COC4)c2)C3=O)C1 [Compound 48, 2-(3-(3-((S)-fluoro(4-methyl-4H-1,2,4-triazol-3-yl)methyl)oxetan-3-yl)phenyl)-6-(((R)-3-methoxypyrrolidin-1-yl)methyl)-4-(trifluoromethyl)isoindolin-1-one]
14 | 1400 nM | 2800 nM | 2.0x | Cn1cnnc1C(F)(F)C1(c2cccc(N3Cc4c(cccc4C(F)(F)F)C3=O)c2)CC1 [Compound 49, 2-(3-(1-(difluoro(4-methyl-4H-1,2,4-triazol-3-yl)methyl)-cyclopropyl)phenyl)-4-(trifluoromethyl)isoindolin-1-one]
15 | 62 nM | 150 nM | 2.4x | Cn1cnnc1[C@H](F)C1(c2cccc(N3Cc4c(cc(CN5CC(C)(O)C5)cc4C(F)(F)F)C3=O)c2)CC(F)(F)C1 [Compound 51, (R)-2-(3-(3,3-difluoro-1-(fluoro(4-methyl-4H-1,2,4-triazol-3-yl)methyl)cyclobutyl)-phenyl)-6-((3-hydroxy-3-methylazetidin-1-yl)methyl)-4-(trifluoromethyl)isoindolin-1-one]
16 | 62 nM | 130 nM | 2.1x | Cn1cnnc1[C@@H](F)C1(c2cccc(N3Cc4c(cc(CN5CC(C)(O)C5)cc4C(F)(F)F)C3=O)c2)CC(F)(F)C1 [Compound 52, (S)-2-(3-(3,3-difluoro-1-(fluoro(4-methyl-4H-1,2,4-triazol-3-yl)methyl)cyclobutyl)-phenyl)-6-((3-hydroxy-3-methylazetidin-1-yl)methyl)-4-(trifluoromethyl)isoindolin-1-one]

Row | Structure (SMILES) | IC50 (Cbl-b) | IC50 (c-Cbl) | (fold-selectivity) (c-Cbl)
17 | Cn1cnnc1CC1(c2cccc(N3Cc4c(cc(C5CCN5)cc4C(F)(F)F)C3=O)c2)COC1 (stereo not shown) [Compound 13, 6-(azetidin-2-yl)-2-(3-(3-((4-methyl-4H-1,2,4-triazol-3-yl)methyl)oxetan-3-yl)phenyl)-4-(trifluoromethyl)isoindolin-1-one formate] | 320 nM | 540 nM | –

Reference: US20250230147A1, “LACTAMS AS CBL-B INHIBITORS” (Genentech, Inc., priority 2021, published 2025)
